Source: patent publication US20040209778A1, “Lactone derivative, and plant growth regulator and rooting agent each containing the same as active ingredient” (priority 2001, published 2004)

Tests used:
[1] = test system: adventitious roots of Bupleurum falcatum L.; test: Rooting test using Bupleurum falcatum L. (1); type: cell-based; settings: for Weight of Freeze-dried Roots: day 24, 0.2 g roots planted
Description: In order to evaluate rooting activity, adventitious roots of Bupleurum falcatum L. were employed. The adventitious roots were obtained by growing the roots of aseptic seedlings by use of IBA. The developed roots were cultured at 23° C. in a B5 liquid medium containing 5 mg/L IBA (for 3 weeks) and in the corresponding B5 liquid medium with no IBA (for 6 weeks) in an alternate manner. The inoculation amount of the roots was 5 g/L, the incubation temperature was 23° C., and subculture was performed in the dark under shaking conditions of 100 rpm. In the rooting test, adventitious roots cultured in IBA-free medium were employed. B5 medium (30-mL) was placed in a 100 mL flask, followed by planting of the roots of Bupleurum falcatum L. (0.2 g) under aseptic conditions. The present lactone derivative, prepared in 10,000 ppm, was added to the flask so as to attain the concentration of 4 ppm or 8 ppm. A sample containing a 4 ppm (final concentration) IBA solution and a sample containing a 8 ppm (final concentration) IBA solution were employed as positive controls, and a corresponding IBA-free sample was employed as a control. Respective samples were cultured under shaking at 100 rpm at 23° C. in the dark, and on day 24, the extent of rooting was checked. The roots were freeze-dried and the weight thereof was measured.

[2] = test system: adventitious roots of Bupleurum falcatum L.; test: Rooting test using Bupleurum falcatum L. (2); type: cell-based; settings: for Number of Lateral Roots: per unit length (2 cm) of planted root, average of 3 measurements
Description: In order to evaluate rooting activity, adventitious roots of Bupleurum falcatum L. were employed. The adventitious roots were obtained by growing the roots of aseptic seedlings by use of IBA. The developed roots were cultured at 23° C. in a B5 liquid medium containing 5 mg/L IBA (for 3 weeks) and in the corresponding B5 liquid medium with no IBA (for 6 weeks) in an alternate manner. The inoculation amount of the roots was 5 g/L, the incubation temperature was 23° C., and subculture was performed in the dark under shaking conditions of 100 rpm.
In the rooting test, adventitious roots cultured in IBA-free medium were employed. B5 medium (30-mL) was placed in a 100 mL flask, followed by planting of the roots of Bupleurum falcatum L. (0.2 g) under aseptic conditions. The present lactone derivative, prepared in 10,000 ppm, was added to the flask so as to attain the concentration of 4 ppm or 8 ppm. A sample containing a 4 ppm (final concentration) IBA solution and a sample containing a 8 ppm (final concentration) IBA solution were employed as positive controls, and a corresponding IBA-free sample was employed as a control. Respective samples were cultured under shaking at 100 rpm at 23° C. in the dark, and on day 24, the extent of rooting was checked. The roots were freeze-dried and the weight thereof was measured.
The general procedure of the above-described rooting test (1) was followed, except that there were employed, as positive controls, samples containing the novel auxin metabolite (Fb) disclosed in Japanese Patent Application Laid-Open (kokai) No. 10-77268, at 4 ppm and 8 ppm (both final concentration).
The number of lateral roots was determined by averaging 3 measurements of the number of the lateral roots appearing per unit length (2 cm) of the planted root.

SMILES	Weight of Freeze-dried Roots ([1]; 4 ppm final concentration)	Weight of Freeze-dried Roots ([1]; 8 ppm final concentration)	rooting activity ([1]; 4 ppm and 8 ppm, compared with IBA as positive control)	rooting activity ([2]; 4 ppm and 8 ppm, compared with Fb as positive control)	Weight of Freeze-dried Roots ([2]; 4 ppm final concentration)	Number of Lateral Roots ([2]; 4 ppm final concentration)	Weight of Freeze-dried Roots ([2]; 8 ppm final concentration)	Number of Lateral Roots ([2]; 8 ppm final concentration)
O=C1CCC(c2cc3ccccc3o2)O1 (stereo not drawn) [Compound 1, 5-(1-Benzofuran-2-yl)dihydro-2(3H)-furanone]	0.37 g	0.35 g						
O=C1CCC(c2csc3ccccc23)O1 (stereo not drawn) [Compound 2, 5-(1-Benzothiophen-3-yl)dihydro-2(3H)-furanone]	0.36 g	0.41 g	rooting activity stronger than IBA	rooting activity stronger than Fb	0.31 g	30.0	0.45 g	43.3
O=C(O)CCCc1c[nH]c2ccccc12 [IBA, indolebutyric acid, reference compound]	0.31 g	0.37 g						
